The text below walks through data of ChEMBL document CHEMBL1154854, “Synthesis and antioxidant properties of enone core based dendrimers with carbazole as surface group” (Eur J Med Chem, 2010).

In brackets after ≈: the same amount, converted by molar mass. Activity calls are given as the source filed them. No cut-off for these calls is given here.

Test [1] concerns Radical scavenging activity. The test is described as follows: Antioxidant activity assessed as DPPH radical scavenging activity after 30 mins by spectrometric assay method. Format: functional. (In general: DPPH is a stable violet radical that fades when it is reduced.)
The test system of test [2] is Radical scavenging activity. The test is described as follows: Antioxidant activity assessed as DPPH radical scavenging activity at 20 to 1000 ug/mL after 30 mins by spectrometric assay method. Format: functional.

As for `O=C1/C(=C/c2ccc(OCc3cc(OCc4cc(OCc5ccc(-n6c7ccccc7c7ccccc76)cc5)cc(OCc5ccc(-n6c7ccccc7c7ccccc76)cc5)c4)cc(OCc4cc(OCc5ccc(-n6c7ccccc7c7ccccc76)cc5)cc(OCc5ccc(-n6c7ccccc7c7ccccc76)cc5)c4)c3)cc2)CCC/C1=C\c1ccc(OCc2cc(OCc3cc(OCc4ccc(-n5c6ccccc6c6ccccc65)cc4)cc(OCc4ccc(-n5c6ccccc6c6ccccc65)cc4)c3)cc(OCc3cc(OCc4ccc(-n5c6ccccc6c6ccccc65)cc4)cc(OCc4ccc(-n5c6ccccc6c6ccccc65)cc4)c3)c2)cc1`, the concentration for half-maximal inhibition (IC50) (commonly the concentration that inhibits the measured activity by half) in test [1] came out at 48 µg/mL (≈ 15.6 µM). Also, the result in test [2] was Active.

With `O=C1/C(=C/c2ccc(OCc3cc(OCc4ccc(-n5c6ccccc6c6ccccc65)cc4)cc(OCc4ccc(-n5c6ccccc6c6ccccc65)cc4)c3)cc2)CCC/C1=C\c1ccc(OCc2cc(OCc3ccc(-n4c5ccccc5c5ccccc54)cc3)cc(OCc3ccc(-n4c5ccccc5c5ccccc54)cc3)c2)cc1`, the Activity entry in test [1] is “Dose-dependent effect”.

For the molecule `Cc1c(C)c2c(c(C)c1O)CC[C@@](C)(CCC[C@H](C)CCC[C@H](C)CCCC(C)C)O2` [ALPHA-TOCOPHEROL], the IC50 in test [1] was 25 µg/mL (≈ 58 µM).

Turning to `O=C1O[C@H]([C@@H](O)CO)C(O)=C1O` [ASCORBIC ACID], the IC50 in test [1] was determined as 48 µg/mL (≈ 273 µM).

As for `COc1ccc(O)c(C(C)(C)C)c1.COc1ccc(O)cc1C(C)(C)C` [BUTYLATED HYDROXYANISOLE], the IC50 in test [1] was found to be 29 µg/mL.
